Tests used:
Assay type in all cases: cell-based
CEM-DNR-bulk = test: Cytostatic/cytotoxic MTT assay, CEM-DNR-bulk; settings: Homo sapiens; daunorubicin resistant subline, 72 h; read-out: MTT, IC50 CEM-DNR-bulk
Description: (§1) Unless otherwise stated, all cells were purchased from the […] (ATCC). The CCRF-CEM line is derived from T lymphoblastic leukemia, evincing high chemosenzitivity, K562 represent cells from a […] patient sample with bcr-abl translocation, HCT116 is colorectal tumor cell line and its p53 gene knock-down counterpart (HCT116p53−/−, Horizon Discovery, UK) is a model of human cancers with p53 inactivation frequently associated with poor prognosis, A549 cell line is lung adenocarcinoma. The daunorubicin resistant subline of CCRF-CEM cells (CEM-DNR bulk) and paclitaxel resistant subline K562-TAX were selected in our laboratory by cultivation of maternal cell lines in increasing concentrations of daunorubicine or paclitaxel, respectively. The CEM-DNR cells overexpress mrp-1 and mdr-1 genes, while K562-TAX cells overexpress mdr-1 only. Both proteins belong to the family of ABC transporters and are involved in the primary and/or acquired multidrug resistance phenomenon (ref.: Gottesman, M. M.; Fojo, T.; Bates, S. E. Multidrug resistance in cancer: role of ATP-dependent transporters. Nat. Rev. Cancer. 2002, 2, 48-58. (b) Noskova, V.; Dzubak, P.; Kuzmina, G.; Ludkova, A.; Stehlik, D.; Trojanec, R.; Janostakova, A.; Korinkova, G.; Mihal, V.; Hajduch, M. In vitro chemoresistance profile and expression/function of MDR associated proteins in resistant cell lines derived from CCRF-CEM, K562, A549 and MDA MB 231 parental cells. Neoplasma 2002, 49, 418-425). Non-malignant MRC-5 and BJ cells, derived from normal human fibroblasts, were used as controls. The cells were maintained in Nunc/Corning 80 cm^2 plastic tissue culture flasks and cultured in cell culture medium (DMEM/RPMI 1640 with 5 g/L glucose, 2 mM glutamine, 100 U/mL penicillin, 100 µg/mL streptomycin, 10% fetal calf serum, and NaHCO3). Cell suspensions were prepared and diluted according to the particular cell type and the expected target cell density (25,000-30,000 cells/well based on cell growth characteristics). Cells were added by pipette (80 L) into 96-well microtiter plates. Inoculates were allowed a pre-incubation period of 24 h at 37° C. and 5% CO2 for stabilization. Four-fold dilutions, in 20-L aliquots, of the intended test concentration were added to the microtiter plate walls at time zero. All test compound concentrations were examined in duplicate. Incubation of the cells with the test compounds lasted for 72 h at 37° C., in a 5% CO2 atmosphere at 100% humidity. At the end of the incubation period, the cells were assayed using MTT. Aliquots (10 L) of the MTT stock solution (5 mg/ml) were pipetted into each well and incubated for another 1-4 h. After this incubation period the formazan produced was dissolved by addition of 100 µL/well of 10% aq SDS (pH 5.5), followed by a further incubation at 37° C. overnight. The optical density was measured at 540 nm. The IC50 value, the drug concentration inhibiting the cell growth by 50%, was calculated from appropriate dose-response curves.
(§2) In vitro cytotoxic/cytostatic activity final nucleosides 1-5 was initially evaluated against […] cell lines derived from human solid tumors including lung (A549 cells) and colon (HCT116 and HCT116p53−/−) carcinomas, as well as leukemia cell lines (CCRF-CEM, CEM-DNR, K562 and K562-TAX) and, for comparison, non-malignant BJ and MRC-5 fibroblasts. Concentrations inhibiting the cell growth by 50% (IC50) were determined using a quantitative metabolic staining with 3-(4,5-dimethylthiazol-2-yl)-2,5-diphenyltetrazolium bromide (MTT) (ref.: Denizot, F.; Lang, R. Rapid colorimetric assay for cell growth and survival: Modifications to the tetrazolium dye procedure giving improved sensitivity and reliability. J. Immunol. Meth. 1986, 89, 271-277) following a 3-day treatment.
(§3) Multidrug resistance is a major therapeutic problem in cancer chemotherapy. […]

HCT116p53-/- = test: Cytostatic/cytotoxic MTT assay, HCT116p53-/-; settings: Homo sapiens, HCT-116; 72 h incubation; read-out: MTT, IC50 HCT116 p53-/-
Description: as §1, §2, §3

[1] = system: Huh-7 cells harboring replicon 1B; test: Cytotoxicity in replicon 1B cells; settings: HCV subtype 1B replicon
Method: (§4) Compounds were also tested in Huh-7 cells harboring sub-genomic reporter replicons derived from HCV subtypes 1B and 2A (ref.: Stuyver, L. J.; Whitaker, T.; McBrayer, T. R.; Hernandez-Santiago, B. I.; Lostia, S.; Tharnish, P. M.; Ramesh, M.; Chu, C. K.; Jordan, R.; Shi, J. X.; Rachakonda, S.; Watanabe, K. A.; Otto, M. J.; Schinazi, R. F. Antimicrob. Agents Chemother. 2003, 47, 244-254).

K562-TAX = test: Cytostatic/cytotoxic MTT assay, K562-TAX; settings: Homo sapiens, paclitaxel resistant subline, 72 h, read-out: MTT, IC50 K562-TAX
Description: as §1, §2, §3

CCRF-CEM = test: Cytostatic/cytotoxic MTT assay, CCRF-CEM; settings: Homo sapiens, 72 h incubation, read-out: MTT, IC50 CCRF-CEM
Description: as §1, §2

[2] = system: HCV subtype 2A replicon in Huh-7 cells; test: HCV sub-genomic reporter replicon assay, subtype 2A; settings: Hepatitis C virus; Huh-7 cells, HCV subtype 2A replicon; read-out: Replicon 2A EC50
Method: as §4

K562 = test: Cytostatic/cytotoxic MTT assay, K562; settings: Homo sapiens, K562; 72 h incubation; read-out: MTT, IC50 K562
Description: as §1, §2

MRC-5 = test: Cytostatic/cytotoxic MTT assay, MRC-5 fibroblasts; settings: Homo sapiens, MRC5; non-malignant fibroblasts, 72 h; read-out: MTT, IC50 MRC-5
Description: as §1, §2

A549 = test: Cytostatic/cytotoxic MTT assay, A549; settings: Homo sapiens, A549; 72 h incubation; read-out: MTT, IC50 A549
Description: as §1, §2

[3] = system: HCV subtype 1B replicon in Huh-7 cells; test: HCV sub-genomic reporter replicon assay, subtype 1B; settings: Hepatitis C virus; Huh-7 cells, HCV subtype 1B replicon; read-out: Replicon 1B EC50
Method: as §4

[4] = system: Huh-7 cells harboring replicon 2A; test: Cytotoxicity in replicon 2A cells; settings: HCV subtype 2A replicon
Method: as §4

SMILES	IC50 (CEM-DNR-bulk) [µM]	IC50 (HCT116p53-/-) [µM]	CC50 [1] [µM]	IC50 (K562-TAX) [µM]	IC50 (CCRF-CEM) [µM]	EC50 [2] [µM]	IC50 (K562) [µM]	IC50 (MRC-5) [µM]	IC50 (A549) [µM]	EC50 [3] [µM]	CC50 [4] [µM]
CN(C)c1ncnc2c1c(-c1ccsc1)cn2[C@@H]1O[C@H](CO)[C@@H](O)[C@H]1O [Compound 4d, 4-Dimethylamino-7-(β-D-ribofuranosyl)-5-(thiophen-3-yl)-7H-pyrrolo[2,3-d]pyrimidine]	> 20	> 20	> 44	> 20	3.48	> 44	0.53	> 100	> 20	38.4	> 44
CN(C)c1ncnc2c1c(-c1cc3ccccc3o1)cn2[C@@H]1O[C@H](CO)[C@@H](O)[C@H]1O [Compound 4f, 5-(Benzofuran-2-yl)-4-dimethylamino-7-(β-D-ribofuranosyl)-7H-pyrrolo[2,3-d]pyrimidine]	> 20	> 20	> 44	> 20	> 20	> 44	> 20	> 100	> 20	19.2	> 44
CSc1ncnc2c1c(I)cn2[C@@H]1O[C@H](CO)[C@@H](O)[C@H]1O [Compound 2h, 5-Iodo-4-methylsulfanyl-7-(β-D-ribofuranosyl)-7H-pyrrolo[2,3-d]pyrimidine]	> 20	> 20	> 44	7.73	> 20	> 44	10.5	> 100	> 20	19.2	> 44
CN(C)c1ncnc2c1c(-c1cccs1)cn2[C@@H]1O[C@H](CO)[C@@H](O)[C@H]1O [Compound 4c, 4-Dimethylamino-7-(β-D-ribofuranosyl)-5-(thiophen-2-yl)-7H-pyrrolo[2,3-d]pyrimidine]	> 20	> 20	> 44	> 20	> 20	> 44	> 20	> 100	> 20	16.8	> 44
COc1ncnc2c1c(-c1ccoc1)cn2[C@@H]1O[C@H](CO)[C@@H](O)[C@H]1O [Compound 1b, 5-(Furan-3-yl)-4-methoxy-7-(β-D-ribofuranosyl)-7H-pyrrolo[2,3-d]pyrimidine]	> 20	0.13	> 44	2.82	0.11	8.28	0.19	29.4	1.16	0.33	> 44
CNc1ncnc2c1c(-c1ccco1)cn2[C@@H]1O[C@H](CO)[C@@H](O)[C@H]1O [Compound 3a, 5-(Furan-2-yl)-4-methylamino-7-(β-D-ribofuranosyl)-7H-pyrrolo[2,3-d]pyrimidine]	> 20	0.44	> 44	15.1	0.18	0.14	0.22	90.8	2.57	0.06	> 44
